According to ChEMBL document CHEMBL5120867, “Hernandezine Regulates Proliferation and Autophagy-Induced Apoptosis in Melanoma Cells” (J Nat Prod, 2022):
Activity calls are given as the source filed them. The rule behind the calls is not given here.

What was measured:
[1] = test system: B16; assay: Inhibition of colony formation in mouse B16 cells assessed as reduction in volume of colonies at 5 to 7 uM incubated for 24 hrs followed by replacement with fresh medium and measured after 14 days by crystal violet staining based analysis; assay type: functional, cell-based; conditions: dose 5-7 µM
[2] = test system: B16; assay: Induction of cell cycle arrest in mouse B16 cells assessed as accumulation at G0/G1 phase incubated for 24 hrs by PI staining based flow cytometry analysis (reference value: 56.59 %); assay type: functional
[3] = test system: A-375; assay: Induction of autophagy in human A-375 cells assessed as decrease in LC3-I /LC3-II ratio at 7 uM incubated for 6 to 24 hrs by […]; assay type: functional, cell-based; conditions: time 6-24 hrs
[4] = test system: A-375; assay: Induction of autophagy in human A-375 cells assessed as increase in LC3-II expression at 7 uM incubated for 6 to 24 hrs by […]; assay type: functional, cell-based; conditions: time 6-24 hrs
[5] = test system: B16; assay: Induction of apoptosis in mouse B16 cells assessed as late apoptotic cells at 6 uM measured after 24 hrs by Annexin-V-FITC/PI-staining based flow cytometry (reference value: 4.4 %); assay type: functional
[6] = test system: A-375; assay: Induction of autophagy in human A-375 cells assessed as decrease in phosphorylated p70S6K level at 7 uM incubated for 6 to 24 hrs by Western blotting analysis; assay type: functional, cell-based; conditions: time 6-24 hrs
[7] = test system: A-375; assay: Cytotoxicity against human A-375 cells assessed as reduction in cell viability measured after 24 hrs by MTT assay; assay type: functional, cell-based; conditions: A-375, 24 h
[8] = test system: A-375; assay: Induction of apoptosis in human A-375 cells assessed as late apoptotic cells at 8 uM after 24 hrs by Annexin-V-FITC/PI-staining based flow cytometry (reference value: 5.7 %); assay type: functional
[9] = test system: A-375; assay: Induction of cell cycle arrest in human A-375 cells assessed as accumulation at S phase at 7 uM incubated for 24 hrs by PI staining based flow cytometry analysis (reference value: 28.83 %); assay type: functional
[10] = test system: B16; assay: Induction of apoptosis in mouse B16 cells assessed as early apoptotic cells measured after 24 hrs by Annexin-V-FITC/PI-staining based flow cytometry (reference value: 0.9 %); assay type: functional
[11] = test system: B16; assay: Induction of cell cycle arrest in mouse B16 cells assessed as accumulation at G2/M phase incubated for 24 hrs by PI staining based flow cytometry analysis (reference value: 0.88 %); assay type: functional
[12] = test system: A-375; assay: Induction of apoptosis in human A-375 cells assessed as […] of Bax/Bcl-2 protein level at 6 to 8 uM incubated for 24 hrs by Western blot analysis; assay type: functional, cell-based; conditions: dose 6-8 µM
[13] = test system: B16; assay: Cytotoxicity against mouse B16 cells assessed as decrease in number of adherent cells at 5 to 7 uM incubated for 24 hrs by phase contrast microscope analysis; assay type: functional, cell-based; conditions: dose 5-7 µM
[14] = test system: Hep 3B2; assay: Cytotoxicity against human Hep3B cells assessed as reduction in cell viability by MTT assay; assay type: functional, cell-based
[15] = test system: B16; assay: Induction of cell cycle arrest in mouse B16 cells assessed as accumulation at G2/M phase incubated for 24 hrs in presence of AG490 by PI staining based flow cytometry analysis (reference value: 0.88 %); assay type: functional
[16] = test system: B16; assay: Induction of apoptosis in mouse B16 cells assessed as early apoptotic cells at 7 uM measured after 24 hrs by Annexin-V-FITC/PI-staining based flow cytometry (reference value: 0.5 %); assay type: functional
[17] = test system: A-375; assay: Inhibition of colony formation in human A-375 cells assessed as reduction in volume of colonies at 6 to 8 uM incubated for 24 hrs followed by replacement with fresh medium and measured after 14 days by crystal violet staining based analysis; assay type: functional, cell-based; conditions: dose 6-8 µM
[18] = test system: A-375; assay: Upregulation of p21 accumulation in human A-375 cells at 6 to 8 uM measured after 12 to 24 hrs by western blot assay; assay type: functional, cell-based; conditions: dose 6-8 µM, time 12-24 hrs
[19] = test system: A-375; assay: Induction of cell cycle arrest in human A-375 cells assessed as accumulation at G0/G1 phase at 7 uM incubated for 24 hrs by PI staining based flow cytometry analysis (reference value: 69.68 %); assay type: functional
[20] = test system: B16; assay: Induction of apoptosis in mouse B16 cells assessed as early apoptotic cells at 6 uM measured after 24 hrs by Annexin-V-FITC/PI-staining based flow cytometry (reference value: 0.5 %); assay type: functional
[21] = test system: A-375; assay: Induction of apoptosis in human A-375 cells assessed as increase in cleaved caspase 3 expression at 6 to 8 uM incubated for 24 hrs by Western blot analysis; assay type: functional, cell-based; conditions: dose 6-8 µM
[22] = test system: A-375; assay: Induction of cell cycle arrest in human A-375 cells assessed as accumulation at G2/M phase at 7 uM incubated for 24 hrs by PI staining based flow cytometry analysis (reference value: 1.48 %); assay type: functional
[23] = test system: A-375; assay: Upregulation of p53 accumulation in human A-375 cells at 6 to 8 uM measured after 12 to 24 hrs by western blot assay; assay type: functional, cell-based; conditions: dose 6-8 µM, time 12-24 hrs
[24] = test system: B16; assay: Induction of cell cycle arrest in mouse B16 cells assessed as accumulation at G2/M phase at 7 uM incubated for 24 hrs by PI staining based flow cytometry analysis (reference value: 4.70 %); assay type: functional
[25] = test system: A-375; assay: Induction of apoptosis in human A-375 cells assessed as increase in cleaved caspase 9 expression at 6 to 8 uM incubated for 24 hrs by Western blot analysis; assay type: functional, cell-based; conditions: dose 6-8 µM
[26] = test system: A-375; assay: Induction of apoptosis in human A-375 cells assessed as late apoptotic cells after 24 hrs by Annexin-V-FITC/PI-staining based flow cytometry (reference value: 5.7 %); assay type: functional
[27] = test system: A-375; assay: Induction of apoptosis in human A-375 cells assessed as nuclear membrane lysis at 6 to 8 uM incubated for 24 hrs by Hoechst 33258 staining based fluorescence microscopy; assay type: functional, cell-based; conditions: dose 6-8 µM
[28] = test system: A-375; assay: Downregulation of Cyclin D1 protein expression in human A-375 cells at 6 to 8 uM measured after 12 to 24 hrs by western blot assay; assay type: functional, cell-based; conditions: dose 6-8 µM, time 12-24 hrs
[29] = test system: B16; assay: Induction of apoptosis in mouse B16 cells assessed as late apoptotic cells preincubated for 2 hrs with 3-MA followed by compound addition and measured after 24 hrs by Annexin-V-FITC/PI-staining based flow cytometry (reference value: 5.7 %); assay type: functional
[30] = test system: A-375; assay: Inhibition of autophagy in human A-375 cells harbouring mCherry-egfp-LC3 assessed as increase in proportion of autolysosome at 7 uM incubated for 8 to 24 hrs by laser scanning confocal microscopic analysis; assay type: functional, cell-based; conditions: time 8-24 hrs, TDE = time-dependent effect
[31] = test system: A-375; assay: Induction of apoptosis in human A-375 cells assessed as cytoplasmic shrinkage at 6 to 8 uM incubated for 24 hrs by Hoechst 33258 staining based fluorescence microscopy; assay type: functional, cell-based; conditions: dose 6-8 µM
[32] = test system: B16; assay: Induction of cell cycle arrest in mouse B16 cells assessed as accumulation at G2/M phase at 5 uM incubated for 24 hrs by PI staining based flow cytometry analysis (reference value: 4.70 %); assay type: functional
[33] = test system: A-375; assay: Induction of cell cycle arrest in human A-375 cells assessed as accumulation at G2/M phase at 8 uM incubated for 24 hrs by PI staining based flow cytometry analysis (reference value: 1.48 %); assay type: functional
[34] = test system: B16; assay: Induction of cell cycle arrest in mouse B16 cells assessed as accumulation at S phase incubated for 24 hrs in presence of AG490 by PI staining based flow cytometry analysis (reference value: 42.53 %); assay type: functional
[35] = test system: B16; assay: Cytotoxicity against mouse B16 cells assessed as change in cell morphology with loss of intercellular contacts at 5 to 7 uM incubated for 24 hrs by phase contrast microscope analysis; assay type: functional, cell-based; conditions: dose 5-7 µM

## COc1ccc2cc1Oc1ccc(cc1)C[C@H]1c3cc(c(OC)cc3CCN1C)Oc1c(OC)c(OC)c(OC)c3c1[C@H](C2)N(C)CC3 [HERNANDEZINE]
[1]
  inhibition: Active
[2]
  Activity: 78.59%
[3]
  Activity: Active
[4]
  Activity: Active
[5]
  Activity: 19.2%
[6]
  Activity: Active
[7]
  IC50: 7.2 µM
[8]
  Activity: 53.4%
[9]
  Activity: 22.36%
[10]
  Activity: 25.6%
[11]
  Activity: 8.78%
[12]
  Activity: Active
[13]
  Activity: Active
[14]
  IC50: 6.71 µM
[15]
  Activity: 8.47%
[16]
  Activity: 16.4%
[17]
  inhibition: Active
[18]
  Activity: Active
[19]
  Activity: 76.87%
[20]
  Activity: 12.9%
[21]
  Activity: Active
[22]
  Activity: 6.77%
[23]
  Activity: Active
[24]
  Activity: 2.98%
[25]
  Activity: Active
[26]
  Activity: 48.1%
[27]
  Activity: Active
[28]
  Activity: Active
[29]
  Activity: 14.5%
[30]
  inhibition: Tde
[31]
  Activity: Active
[32]
  Activity: 4.58%
[33]
  Activity: 1.24%
[34]
  Activity: 6.92%
[35]
  Activity: Active
